Reference: PMC12040169 (PLOS Biology, 2025)

Test: in vitro
Conditions: human, hela cells, % viability

Row | Compound | viability at 28.5 h, 10 µM [%]
1 | CN(C(=O)Cn1cccc(C(=O)NCC(C)(C)c2ccc(F)cc2)c1=O)C1CCCCC1 [CBK286112] | 108
2 | CC(C)(C)c1ccc(-c2nc(O)c(CC(=O)O)s2)cc1 [CBK067734] | 99.6
3 | COc1ccc(CCN2CCN(c3nccnc3OCc3cc(C)on3)CC2)cc1OC [CBK084207] | 105
4 | CCOC(=O)c1cnc2c(C)cc(Cl)cc2c1N1CCN(Cc2ccccc2)CC1 [CBK265975] | 108
5 | O=C(O)c1cc(S(=O)(=O)Nc2ccccc2)ccc1O [CBK109969] | 83.2
6 | O=C(C1CC1)N1C2CCC1Cn1c(nc3ccccc3c1=O)C2 (stereo not shown) [CBK284451] | 92.2
7 | CC(=O)Nc1cccc(C(=O)OCC(=O)N2CCCC2)c1 [CBK306395] | 91.6
8 | CCCCN(C)c1c(CC)nc2ccc(C(=O)NCCc3ccccn3)cn12 [CBK145441] | 98.4
9 | Cc1cc(C#N)ccc1OCC(=O)NC1CCS(=O)(=O)C1 (stereo not shown) [CBK305816] | 84.9
10 | COC1C(O)C(CO)OC1n1cc(C)c(=O)[nH]c1=O (stereo not shown) [CBK201251] | 103
11 | O=C(CSc1nnc(SCc2cccc3ccccc23)s1)Nc1ccc(F)c(Cl)c1 [CBK267574] | 92.1
12 | CC(C)[C@@H](CO)Nc1cc(-c2cccc(Br)c2)nc2ccnn12 [CBK037117] | 93.9
13 | c1ccc(N2CCN(c3nc4cc5c(cc4s3)OCO5)CC2)cc1 [CBK287495] | 108
14 | CN1CCC(N2CCN(C(=O)c3cnc(-c4ccccn4)nc3C(F)(F)F)CC2)CC1 [CBK149089] | 107
15 | N#Cc1nccnc1N1CCN(Cc2ccc3c(c2)OCO3)CC1 [CBK011284] | 83.3
16 | C=CCO[C@@H]1C[C@H]2C(=O)N3CC[C@H](NC(=O)[C@@H](O)c4ccccc4)C[C@H]3C(=O)N2C1 [CBK289556] | 89.6
17 | COc1cccc(CNC(=O)c2cc3c(nc2N)CCN(Cc2cccc(C)c2OC)C3)c1 [CBK285682] | 98.6
18 | CC1CN(c2ccc(CNc3ncccc3C#N)cn2)CCO1 (stereo not shown) [CBK305957] | 99.5
19 | CCN(CC)CCN1C(=O)CCC2(c3ccccc3)CCC(=O)C=C12 (stereo not shown) [CBK023010C] | 105
20 | Nc1nonc1-n1cc(CN2CCCCC2)nn1 [CBK307044] | 97.1
21 | CCOC(=O)N1CCC(NC(=O)N2CCN(c3cc(C(F)(F)F)ccn3)CC2)CC1 [CBK162353] | 103
22 | Cc1nc(-c2cccnc2)[nH]c(=O)c1CCC(=O)N1CCNC(C)C1 (stereo not shown) [CBK304163] | 102

Row | Compound | viability at 28.5 h, 10 µM [%]
23 | O=C(NC1CCCC1)c1ccc(-c2cnc3[nH]c(=O)n(Cc4ccc(Cl)cc4)c3n2)cc1 [CBK065039] | 94.7
24 | COc1cncc(-c2cnc(N)c(N3CCOCC3)n2)c1 [CBK063360] | 96.7
25 | O=C(NCCc1c[nH]c2ccc(Cl)cc12)c1ccc(Br)cc1Cl [CBK159762] | 89.1
26 | C=C[C@H]1C[N@@]2CC[C@H]1C[C@@H]2CNS(=O)(=O)c1cccc(C#N)c1 [CBK288750] | 103
27 | N#Cc1ccc(CN2CCC(NC3CCCn4nccc43)C2=O)cc1 (stereo not shown) [CBK304770] | 97.8
28 | O=C(Nc1ccc(I)cc1C(=O)Nc1cccnc1)c1ccccc1Cl [CBK266154] | 98.5
29 | O=C(Nc1cccnc1)c1cc(S(=O)(=O)N2CCOCC2)ccc1Cl [CBK262099] | 84.7
30 | COCCNC(=O)CN(C)c1nc2ccccc2[nH]1 [CBK306378] | 84.6
31 | Cc1nc(-c2ccccc2)sc1C(=O)C1=C(O)C(=O)N(CCN(C)C)C1c1ccc(Cl)cc1 (stereo not shown) [CBK266595] | 110
32 | COc1cc(/C=C2\SC(=S)N(Cc3cccnc3)C2=O)ccc1OCc1cccc2ccccc12 [CBK264624] | 112
33 | CC(=O)Nc1ccc(CNc2nnc(C3CCCCC3)o2)cc1 [CBK306427] | 105
34 | c1ccc2sc(SCc3nc4c5c6c(sc5ncn4n3)CCCC6)nc2c1 [CBK262923] | 92.5
35 | O=C(O)CCCC(=O)Nc1cccc([N+](=O)[O-])c1 [CBK261530] | 101
36 | CCn1cc(S(=O)(=O)NCc2ccccc2OC)cn1 [CBK270304] | 98.1
37 | c1ccc(COc2nccnc2-c2ccccc2)cc1 [CBK106686] | 92.2
38 | Cc1ccc(S(=O)(=O)N2C(=O)CCC2C(=O)O/N=C(\N)c2cccnc2)cc1 (stereo not shown) [CBK266864] | 111
39 | CC1CCN(Cc2c(O)ccc3c(=O)c(-c4cccc(Cl)c4)c(C(F)(F)F)oc23)CC1 [CBK266258] | 103
40 | O=C(Nc1ncccc1Cl)c1ccc(F)cc1 [CBK288215] | 93.1
41 | CCOC(=O)c1sc2nc(N3CCOCC3)c3c(c2c1N)CCCC3 [CBK131870] | 100
42 | O=C(NCc1ccc2c(c1)OCO2)c1ccc(S(=O)(=O)N2CCCC2)cc1 [CBK263590] | 108
43 | CC(C)(C)C1CCc2c(sc(NC(=O)CCC(=O)O)c2C(=O)Nc2ccccc2Cl)C1 (stereo not shown) [CBK264146] | 87.2
44 | COc1ccc2[nH]c3c(c2c1)CN(C(=O)CCC1CCCO1)CC3 (stereo not shown) [CBK281530] | 99.7

Row | Compound | viability at 28.5 h, 10 µM [%]
45 | CCn1cc(CN(CCN(C)C)Cc2cccs2)c(C)n1 [CBK283037] | 101
46 | COc1ccccc1OCCNC1CCc2cc(Cl)ccc2C1 (stereo not shown) [CBK013067C] | 93.2
47 | Cc1ccc2[nH]c(Cc3ccc(NC(=O)c4cccc5c(=O)cc(C)[nH]c45)cc3)nc2c1 [CBK285814] | 99.5
48 | O=C(COc1ccc(S(=O)(=O)NC2CCCCC2)cc1Cl)Nc1ccc2c(c1)OCO2 [CBK267615] | 90.5
49 | O=C(c1ccc(F)cc1)N1CCN(c2ccc(Nc3ccncc3)nn2)CC1 [CBK287836] | 99.7
50 | Cc1ccnc2nc(C(=O)OC(C)C(=O)N3CCCCCC3)nn12 (stereo not shown) [CBK306155] | 102
51 | O=C(CCc1ccc(=O)[nH]n1)N1CCCCC1c1nc2cc(F)ccc2[nH]1 (stereo not shown) [CBK291107] | 105
52 | CCCn1cc(CNC(=O)c2cccc(S(=O)(=O)N3CCCC3)c2)cn1 [CBK307095] | 78.5
53 | CCn1cc(C(=O)Nc2nccs2)c(=O)c2ccc(C)nc21 [CBK307628] | 78.3
54 | Cc1cc(S(=O)(=O)N(C)CCC#N)c(C)cc1Cl [CBK043787] | 111
55 | Nc1ncc(-c2ccco2)nc1N1CCOCC1 [CBK063456] | 80.2
56 | CCN1CC2(CCC1=O)CCN(Cc1nnc(-c3cccnc3)o1)CC2 [CBK307137] | 92.6
57 | O=C(CCn1cnnn1)Nc1cc(C(F)(F)F)ccc1Cl [CBK270127] | 91.4
58 | O=C(Oc1ccc(F)cc1C(=O)/C=C/c1cccs1)c1ccc([N+](=O)[O-])cc1 [CBK264925] | 91.2
59 | O=c1[nH]cnc2c1nc(S)n2C1OC(CO)C(O)C1O (stereo not shown) [CBK218834] | 96.4
60 | Cc1ccc(CN(Cc2nccn2C)C2CC(C)(C)NC(C)(C)C2)o1 [CBK283190] | 112
61 | CS(=O)(=O)N[C@H]1CCN2C(=O)c3cc(-c4ccc(Cl)cc4)ccc3NC(=O)[C@@H]2C1 [CBK289565] | 95.3
62 | Cn1c(N2CC[C@H](O)C2)nc2cc(C(=O)NC3CCCC3)ccc21 [CBK306779] | 97.6
63 | O=C(NC(c1ccccc1)c1ccccn1)C1CCN(C(=O)Oc2ccccc2)CC1 (stereo not shown) [CBK060105] | 96.9
64 | Nc1nc(SCC(=O)NCc2ccc3c(c2)OCO3)n[nH]1 [CBK266580] | 101
65 | Cc1cccc(C)c1NC(=O)CCC(=O)OCc1ccccc1 [CBK267158] | 102
66 | Cc1ccc(NC(=S)NCCNc2ccccn2)cc1Cl [CBK297544] | 105

Row | Compound | viability at 28.5 h, 10 µM [%]
67 | CN(C(=O)CCn1c(=O)oc2cc(Cl)ccc21)C1(C(N)=O)CCCC1 [CBK305493] | 89.1
68 | O=C1NN=C(c2ccccc2)CC1c1c[nH]c2ccccc12 (stereo not shown) [CBK288235] | 104
69 | CCCNC(=O)C1(Cc2ccccc2-c2ccccc2)CCN(C(=O)c2ccccc2)CC1 [CBK286275] | 89.3
70 | O=C(Nc1nnc(C(F)(F)F)s1)c1cc(Cl)ccc1Cl [CBK095734] | 86.3
71 | CC1=C(C(=O)OCC(C)C)C(c2ccc(C)cc2)N2C(=O)C(C)SC2=N1 (stereo not shown) [CBK091646] | 92.8
72 | O=C(NCc1cccc(C(F)(F)F)c1)N1CCN(c2cc(C(F)(F)F)ccn2)CC1 [CBK156435] | 102
73 | C=CCn1oc(=O)n(-c2ccc(OC)cc2)c1=O [CBK122773] | 89.4
74 | COCCNS(=O)(=O)c1ccc(Br)c(C(=O)N(C)Cc2cnn(C)c2)c1 [CBK304795] | 96.6
75 | NS(=O)(=O)c1ccc(NC(=O)CSc2ccc3ccccc3c2)cc1 [CBK268203] | 89.8
76 | O=C(O)C1CCN(C2C(=O)Nc3ccc(Cl)cc3C2c2ccccc2)CC1 (stereo not shown) [CBK287210] | 94.4
77 | CC(C)(C)C1=CC2=NC3(CCCCCCCCCCC3)[C@@H]3C[C@@H](O)[C@@H](O)[C@@H]3N2O1 [CBK303254] | 113
78 | O=c1nc(-c2ccco2)oc2ccccc12 [CBK152421] | 112
79 | COC(=O)c1cnc(Sc2ccc(Cl)cc2)nc1C(F)(F)F [CBK009299] | 95.9
80 | CS(=O)(=O)c1ccc(Nc2cncc(N3CCC(Sc4ccccn4)CC3)c2C#N)cc1 [CBK131843] | 85.2
81 | COc1ccc(C(C)C)cc1-c1cncc(N2CCN(c3ccccc3C#N)CC2)n1 [CBK037927] | 98.8
82 | CCC1CCCCN1C(=O)c1cc(C)oc1C (stereo not shown) [CBK089358] | 105
83 | CC(C)(C)OC(=O)C1(NC(=O)Cc2cn3ccccc3n2)CCCC1 [CBK305500] | 95.9
84 | Cc1ccc(C2CC(=O)Nc3nc(-c4ccccc4)[nH]c(=O)c32)c(C)c1 (stereo not shown) [CBK287998] | 108
85 | O=C(C1CCN(S(=O)(=O)c2ccc3ccccc3c2)CC1)N1CCC(Cc2ccccc2)CC1 [CBK269558] | 83
86 | O=C(NC1CCCC1)c1ccnc2ccccc12 [CBK200237] | 92.6
87 | CCOC(=O)CC(=O)N1CCC(c2onc3c2CC(C)CC3)CC1 (stereo not shown) [CBK285187] | 100
88 | O=C1NC(=O)c2c(NC(=O)C3CCCCC3)cccc21 [CBK019837] | 88.3
